Values joined by “and” are separate entries in the source; they are usually repeats but may differ in a detail not shown here. Identical values can stand only once. Like-named read-outs stand apart in the source and are kept apart here.
Assays:
[1] = tested on: S. aureus ATCC 25923 (reference strain); experiment: MIC/MBC by broth micro-dilution (CLSI); format: cell-based; conditions: Staphylococcus aureus; for MBC: ATCC25923, in square brackets, modal value; for MIC: ATCC25923, modal value
Protocol: (§1) To expand the previously obtained results compounds 16 and 17 were also tested on wider a selection of strains: two other MDR S. aureus and E. faecalis clinical isolates, the S. aureus ATCC 25923 and the E. faecalis ATCC 51299 reference strains. Compound 2, which was endowed with low antimicrobial activity, was tested as well, to confirm its low efficacy. Adarotene was used as control compound (Table 2).
(§2) MICs and MBCs were determined according to CLSI (Clinical and Laboratory Standards Institute) guidelines, in triplicate. Results are shown as modal values of the three replicates. According to MIC and MBC data, the killing rate was calculated as the ratio between MBC and MIC on which basis it is possible to define the compounds tested as bactericides (killing rate = 1–4), or bacteriostatic (killing rate > 4).
(§3) Preparation of the solution containing molecules: for each molecule to be tested, solutions were made as DMSO stock, with a concentration of 2.560 mg/mL. Scalar dilutions were than prepared directly on plates by using Mueller Hinton Broth (MHB) as a growth medium (range 0.5–256 µg/mL).
(§4) Bacterial suspension preparation: cryostrains preserved at −80 °C were recovered by incubation in growth medium (Brain Heart Infusion Broth, BHI) for 24–48 h at 35 ± 2 °C followed by passages in agar growth medium (Columbia Blood Agar). Colonies with less than 30 h were suspended in MHB with the purpose to prepare a bacterial suspension with a turbidity of 0.5 MF, containing approximately 1.5 × 10^8 cfu/mL. This suspension was than diluted in MHB until reaching a final concentration of 5 × 10^4 CFU/well. Simultaneously, check in broth-microdilution only with solvent (in order to exclude that the effect of growth inhibition might be due to the drug solution solvent), positive growth control in absence of DMSO and drug, and negative purity control only with injection broth were performed.
S. aureus ATCC 25923 (reference strain): mecA negative; multi-susceptible.

[2] = tested on: S. aureus strain 1 (MDR clinical isolate, MRSA, mecA positive); experiment: MIC/MBC by broth micro-dilution (CLSI); format: cell-based, Staphylococcus aureus; conditions: for MIC / MBC: S. aureus Strain 1; for MBC: in square brackets; for bactericidal or bacteriostatic activity (killing rate = MBC/MIC): S. aureus and E. faecalis, bactericides killing rate = 1–4, bacteriostatic > 4
Protocol: (§5) The compounds were initially tested with a methicillin-resistant S. aureus and an E. faecalis clinical isolates (details in the experimental section), two MDR strains according to definition by Magiorakos et al.. The activity of studied compounds was assessed by broth micro-dilution method. Minimal Inhibitory Concentration (MIC), and Minimal Bactericidal Concentration (MBC) were determined and possible bacteriostatic or bactericidal activity was also investigated.
as §2, §3, §4
S. aureus strain 1 (collection, MDR): mecA positive; MRSA, β-lactamase positive, resistant to ciprofloxacin, gentamicin and erythromycin.

[3] = tested on: E. faecalis strain 2 (MDR clinical isolate); experiment: MIC/MBC by broth micro-dilution (CLSI); format: cell-based; conditions: Enterococcus faecalis, modal value; for MBC: in square brackets
Protocol: as §1, §2, §3, §4
E. faecalis strain 2 (collection, MDR) vanA/B negative; aminoglycosides high-level resistant to aminoglycosides (gentamicin and strseptomycin) and ampicillin.

[4] = tested on: E. faecalis strain 1 (MDR clinical isolate); experiment: MIC/MBC by broth micro-dilution (CLSI); format: cell-based, Enterococcus faecalis; conditions: for MBC: in square brackets
Protocol: as §5, §2, §3, §4
E. faecalis strain 1 (collection, MDR) vanA/B negative; aminoglycosides high-level resistant to aminoglycosides (gentamicin and streptomycin) and ampicillin.

[5] = tested on: E. faecalis ATCC 51299 (reference strain, vanB positive); experiment: MIC/MBC by broth micro-dilution (CLSI); format: cell-based; conditions: Enterococcus faecalis; for MBC: ATCC51299, in square brackets, modal value; for MIC: ATCC51299, modal value
Protocol: as §1, §2, §3, §4
E. faecalis ATCC 51299 (reference strain): vanB positive.

[6] = tested on: tumor cell line IGROV-1; conditions: ± SD, read-out: IC50 (concentration required for 50% inhibition of cell growth), cited from earlier work
[7] = tested on: S. aureus strain 2 (MDR clinical isolate); experiment: MIC/MBC by broth micro-dilution (CLSI); format: cell-based; conditions: Staphylococcus aureus, modal value; for MBC: in square brackets
Protocol: as §1, §2, §3, §4
S. aureus strain 2 (collection, MDR): mecA negative; β-lactamase positive, resistant to erythromycin, gentamicin, clindamycin and fusidic acid.

[8] = tested on: tumor cell line H-460 NCI; set-up: method as in PMID 32920362; conditions: ± SD, ref [17], read-out: IC50 (concentration required for 50% inhibition of cell growth); cited from earlier work
[9] = Staphylococcus aureus, MRSA, modal value of three replicates, read-out: MIC
[10] = Staphylococcus aureus, MRSA, modal value, read-out: MIC
[11] = Staphylococcus aureus, MRSA, modal value
[12] = Enterococcus faecalis, modal value
[13] = Enterococcus faecalis, modal value of three replicates, read-out: MIC
[14] = Enterococcus faecalis, modal value, read-out: MIC
[15] = modal value of three replicates

| Compound | MIC [2, 9] [µg/mL] | MIC [2, 10] [µM] | MBC [2, 11] | MBC [4, 12] | MIC [4, 13] [µg/mL] | MIC [4, 14] [µM] | IC50 ([6]; ref [13]) [µM] | MIC [2, 15] | MIC [4, 15] | other results |
| --- | --- | --- | --- | --- | --- | --- | --- | --- | --- | --- |
| O=C(O)/C=C/c1ccc(-c2ccc(O)c(C34CC5CC(CC(C5)C3)C4)c2)cc1 [Adarotene, adarotene] | 8 | 21 | 16 µg/mL and 42 µM | 32 µg/mL and 85 µM | 1 | 3 | 0.23 ± 0.08 | – | – | MBC [1]: 16 µg/mL and 42 µM; MIC [1]: 8 µg/mL and 21 µM; MBC [3]: 32 µg/mL and 84 µM; MIC [3]: 4 µg/mL and 10 µM; MBC [5]: 32 µg/mL and 84 µM; MIC [5]: 2 µg/mL and 5 µM; MBC [7]: 8 µg/mL and 21 µM; MIC [7]: 4 µg/mL and 10 µM |
| CC(C)(C)c1cc(-c2ccc(/C=C/C(=O)O)cc2)ccc1O [Compound 1] | 64 | 216 | – | – | > 256 | > 864 | 30 | – | – | – |
| O=C(O)C=Cc1ccc(-c2ccc(OCCCCO)c(C34CC5CC(CC(C5)C3)C4)c2)cc1 [Compound 2, 3-[3′-adamantan-1-yl-4′-(hydroxybutoxy)-biphenyl-4-yl]-acrylic acid] | > 256 | 573 | – | – | > 256 | 287 | – | 256 µg/mL | 128 µg/mL | MIC [1]: 256 µg/mL and 572 µM; MIC [3]: 128 µg/mL and 286 µM; MIC [5]: 64 µg/mL and 143 µM; MIC [7]: 256 µg/mL and 572 µM |
| N#C/C=C/c1ccc(-c2ccc(O)c(C34CC5CC(CC(C5)C3)C4)c2)cc1 [Compound 4] | – | 361 | 128 µg/mL and 361 µM | 128 µg/mL and 360 µM | ≥ 32 | 90 | 8.3 ± 1.4 | >= 32 µg/mL and 128 [128] µg/mL | 32 µg/mL | – |
| O=C(/C=C/c1ccc(-c2ccc(O)c(C34CC5CC(CC(C5)C3)C4)c2)cc1)NO [Compound 5] | ≥ 32 | 164 | – | – | – | > 657 | – | 64 µg/mL | >= 32 µg/mL and >256 µg/mL | IC50 ([6]; ref [15]): 1.1 ± 0.6 µM |
| O=C(/C=C/c1ccc(-c2ccc(O)c(C34CC5CC(CC(C5)C3)C4)c2)cc1)Nc1ccc(O)cc1 [Compound 6] | – | > 549 | – | – | – | > 550 | 6.6 ± 0.5 | >= 32 µg/mL and >256 µg/mL | >= 32 µg/mL and >256 µg/mL | – |
| O=C(O)/C(F)=C\c1ccc(-c2ccc(O)c(C34CC5CC(CC(C5)C3)C4)c2)cc1 [Compound 7] | 2 to 4 | 10 | 16 µg/mL and 40 µM | 16 µg/mL and 40 µM | – | 10 | > 3 | 4 µg/mL | 1 to 4 µg/mL and 4 µg/mL | – |
| C/C(=C\c1ccc(-c2ccc(O)c(C34CC5CC(CC(C5)C3)C4)c2)cc1)C(=O)O [Compound 8] | 2 to 4 | 5 | 8 µg/mL and 20 µM | 8 µg/mL and 21 µM | 1 to 4 | 3 | 7.19 ± 1.27 | 2 µg/mL | 1 µg/mL | – |
| O=C(O)CCc1ccc(-c2ccc(O)c(C34CC5CC(CC(C5)C3)C4)c2)cc1 [Compound 10] | 16 | 42 | 16 µg/mL and 42 µM | 32 µg/mL and 85 µM | 16 | 42 | 48.4 ± 0.88 | 16 [16] µg/mL | 16 µg/mL | – |
| COc1cc(-c2ccc(/C=C/C(=O)O)cc2)cc(C23CC4CC(CC(C4)C2)C3)c1O [Compound 11] | 16 | 40 | 32 µg/mL and 80 µM | – | 8 | 20 | – | – | – | – |
| O=C(O)/C=C/c1ccc(-c2cc3c(c(C45CC6CC(CC(C6)C4)C5)c2)OCCO3)cc1 [Compound 12] | 4 | 9 | – | – | 2 | 5 | – | – | – | IC50 ([6]; ref [14]): 0.23 ± 0.07 µM |
| CC(=O)NCc1cc(-c2ccc(/C=C/C(=O)O)cc2)cc(C23CC4CC(CC(C4)C2)C3)c1O [Compound 13] | 8 | 18 | 16 µg/mL and 36 µM | 16 µg/mL and 36 µM | 4 | 9 | – | – | – | IC50 ([6]; ref [14]): 1.24 ± 0.07 µM |
| O=Cc1cc(-c2ccc(/C=C/C(=O)O)cc2)cc(C23CC4CC(CC(C4)C2)C3)c1O [Compound 15] | 64 | 159 | – | – | 64 | 159 | – | – | – | IC50 ([6]; ref [14]): 1.64 ± 0.03 µM |
| CC(C)(C)ON=Cc1cc(/C=C/C(=O)O)ccc1-c1ccc(O)c(C23CC4CC(CC(C4)C2)C3)c1 [Compound 16] | 4 | 8 | 4 µg/mL and 8 µM | 4 µg/mL and 8 µM | 2 to 8 | 4 | – | 4 [4] µg/mL | 2 µg/mL | MBC [1]: 4 µg/mL and 8 µM; MIC [1]: 2 µg/mL and 4 µM; bactericidal or bacteriostatic activity (killing rate = MBC/MIC) [2]: bactericidal effect; MBC [3]: 8 µg/mL and 16 µM; MIC [3]: 2 µg/mL and 4 µM; IC50 [8]: > 10 µM; MBC [5]: 8 µg/mL and 16 µM; MIC [5]: 2 µg/mL and 4 µM; MBC [7]: 2 µg/mL and 4 µM; MIC [7]: 2 µg/mL and 4 µM |
| CON=Cc1cc(/C=C/C(=O)O)ccc1-c1ccc(O)c(C23CC4CC(CC(C4)C2)C3)c1 [Compound 17] | 4 | 9 | 4 µg/mL and 9 µM | 16 µg/mL and 38 µM | – | 19 | – | 4 [4] µg/mL | 2 to 8 µg/mL and 8 µg/mL | MBC [1]: 4 µg/mL and 10 µM; MIC [1]: 2 µg/mL and 5 µM; bactericidal or bacteriostatic activity (killing rate = MBC/MIC) [2]: bactericidal effect; MBC [3]: 16 µg/mL and 36 µM; MIC [3]: 8 µg/mL and 18 µM; IC50 [8]: > 10 µM; MBC [5]: 32 µg/mL and 74 µM; MIC [5]: 8 µg/mL and 18 µM; MBC [7]: 32 µg/mL and 74 µM; MIC [7]: 4 µg/mL and 10 µM |
| O=C(O)/C=C/c1ccc(-c2ccc(O)c(C34CC5CC(CC(C5)C3)C4)c2)c(C=NOCC(=O)O)c1 [Compound 18] | – | 269 | – | – | – | 269 | – | 32 to 128 µg/mL and 128 µg/mL | 32 to 128 µg/mL and 128 µg/mL | IC50 [8]: > 10 µM |
| N=C(N)NCc1cc(/C=C/C(=O)O)ccc1-c1ccc(O)c(C23CC4CC(CC(C4)C2)C3)c1 [Compound 19] | 32 to 128 | 72 | 64 µg/mL and 144 µM | 64 µg/mL and 144 µM | 32 to 128 | 72 | – | 32 µg/mL | 32 µg/mL | IC50 [8]: > 10 µM |
| O=Cc1cc(/C=C/C(=O)O)ccc1-c1ccc(O)c(C23CC4CC(CC(C4)C2)C3)c1 [Compound 20] | 2 | 5 | 32 µg/mL and 80 µM | – | 8 | 20 | – | – | – | IC50 [8]: 3.2 ± 0.2 µM |

— PMC7912516, “New Antimicrobials Based on the Adarotene Scaffold with Activity against Multi-Drug Resistant Staphylococcus aureus and Vancomycin-Resistant Enterococcus” (Antibiotics, 2021)
